Usually Kd stands for the concentration at which binding is half-saturated.

Each structure is given as a SMILES string. Read-outs that look alike come from different tables or passages of the source.

One compound from PMC5618657, “Osmolyte-Like Stabilizing Effects of Low GdnHCl Concentrations on D-Glucose/D-Galactose-Binding Protein” (International Journal of Molecular Sciences, 2017) can be followed below.

What all share (set-up): species or system E. coli
The target of one experiment is T1, GGBP/H152C-BADAN (Escherichia coli, UniProt P0AEE5, H175C).
T1 construct: polyhistidine (C); BADAN (fluorescent dye covalently linked to Cys152); made in house; host or cells: E. coli BL21(DE3)
T1 sequence (P0AEE5 24-332 H175C limits assumed): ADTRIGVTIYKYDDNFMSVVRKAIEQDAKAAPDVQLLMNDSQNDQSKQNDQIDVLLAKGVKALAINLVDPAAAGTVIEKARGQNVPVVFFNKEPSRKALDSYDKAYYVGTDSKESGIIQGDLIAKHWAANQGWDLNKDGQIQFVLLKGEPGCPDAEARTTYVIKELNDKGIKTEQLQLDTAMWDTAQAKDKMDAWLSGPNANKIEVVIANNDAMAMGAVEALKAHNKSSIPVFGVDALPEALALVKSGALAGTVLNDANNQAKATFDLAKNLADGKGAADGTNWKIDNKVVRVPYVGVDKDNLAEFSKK
Kind of experiment: Stopped-flow fluorescence kinetics of glucose binding. The conditions noted are these: glucose 0.5 mM, protein 0.6 μM, 23 °C. An excerpt: The greater affinity of GGBP to glucose in the presence of low GdnHCl concentrations was also manifested by an increase in the binding rate of glucose to the protein in the presence of 0.1 M GdnHCl. It is known that, at high concentrations of one of the reactants, the reaction rate is predominately determined by the content of the substance with a low concentration (pseudo-first order conditions). Therefore, it can be expected that in solutions of high glucose concentration, the rate of the GGBP/H152C-glucose complex formation will be determined by the content of molecules with the semi-closed conformations in a protein ensemble. […]
It is expected that the decay curves should contain at least two rate constants characterizing the interconversion between the protein conformers in the absence of ligand and reflecting the glucose binding to GGBP/H152C [88]. […] Therefore, in practice, the recorded curves are approximated by monoexponential decay.
The kinetics of glucose binding to GGBP/H152C-BADAN in a timeframe from 0 to 0.04 s was measured using the MOS450spectrometerequipped with the stopped-flow mixing module SFM-4 (Bio-Logic, Seyssinet-Pariset, France). The excitation wavelength was 387 nm, the dye fluorescence signal was filtered by cut-off filter at 405 nm. […]

A further experiment addresses T2, GGBP/H152C (Escherichia coli, UniProt P0AEE5, H175C).
T2 construct: polyhistidine (C); made in house; host or cells: E. coli BL21(DE3)
Nature of the experiment: Isothermal titration calorimetry of glucose binding (mutant). The note with it: Kd (ITC). An excerpt: (§1) For this purpose, we used isothermal titration calorimetry (ITC) (Figure 7), since this approach allows for the determination of both the stoichiometric and thermodynamic binding parameters. The results of the ITC analysis generally corresponded to the data generated by the fluorescent-based analysis of the GGBP/H152C-BADAN interaction with glucose in solutions with sub-denaturing GdnHCl concentrations. […] The enthalpy contribution to the Gibbs free energy change caused by the interaction of studied proteins with glucose was principal in all solutions tested. This indicates the significant contribution of the hydrogen bonds between protein and glucose to the protein-ligand complex formation, [91] which is in excellent agreement with the X-ray structural data showing that the glucose binding to the GGBP active center is stabilized by 13 hydrogen bonds. […]
(§2) The parameters of the binding of mutant GGBP/H152C and wtGGBP with glucose in buffer, GdnHCl, and urea solutions were determined using the isothermal titration calorimeter TA Nano ITC (TA Instruments, New Castle, DE, USA) at the Resource Center of the Thermogravimetric and Calorimetric Research (Research Park of St. Petersburg State University). […]
A general note: In ITC the heat of successive injections is recorded.

In a further experiment the target is T3, wtGGBP (Escherichia coli, UniProt P0AEE5).
T3 construct: polyhistidine (C); made in house; host or cells: E. coli BL21(DE3)
T3 sequence (P0AEE5 24-332 limits assumed): as the sequence (P0AEE5 24-332 H175C limits assumed) above, with C152H counted along it
Nature of the experiment: Isothermal titration calorimetry of glucose binding (wild type). The conditions noted are these: read-out: Kd (ITC).
Excerpt: as §1, §2

Setting [1] is: solution without denaturants (black).

T2 sequence (P0AEE5 24-332 H175C limits assumed): as the sequence (P0AEE5 24-332 H175C limits assumed) above

With `OC[C@H]1OC(O)[C@H](O)[C@@H](O)[C@@H]1O` (stereo partly drawn) [glucose, D-Glucose], the “k (rate of GGBP/H152C-glucose complex formation)” value at GGBP/H152C-BADAN (in 0.1 M GdnHCl) turned out to be 508 s⁻¹; at GGBP/H152C-BADAN (without denaturants) it was 465 s⁻¹. In addition, the Kd amounted to 2290 ± 80 nM on GGBP/H152C (0.1 M GdnHCl (red)), 3050 nM on GGBP/H152C (setting [1]), 280 ± 60 nM at wtGGBP (0.1 M GdnHCl (red)) and 310 nM at wtGGBP (setting [1]).
